These results are taken from ChEMBL document CHEMBL1201862, “PubChem BioAssay data set” (2004).

SMILES strings stand for the structures. The source made the active and inactive calls.

Test [1] can be described thus: Luminescence Cell-Based Dose Retest to Confirm Inhibitors of Cancer Stem Cells. [Related pubchem assays (depositor defined):AID2717, AID2721]. In kind it is functional. The settings on record: Homo sapiens.
Another test deals with Prothrombin (Homo sapiens, UniProt P00734). Kind of test: Thrombin 1536 HTS Dose Response Confirmation. [Related pubchem assays: 1046 (Thrombin 1536 HTS; hits were confirmed in this assay)]. The test is classed as functional.
In a further test the target is T1, Cytochrome P450 1A2 (Homo sapiens, UniProt P05177).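 Also: PubChem cytochrome P450 panel assay, CYP1A2 panel member.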
T1 sequence (P05177 whole entry): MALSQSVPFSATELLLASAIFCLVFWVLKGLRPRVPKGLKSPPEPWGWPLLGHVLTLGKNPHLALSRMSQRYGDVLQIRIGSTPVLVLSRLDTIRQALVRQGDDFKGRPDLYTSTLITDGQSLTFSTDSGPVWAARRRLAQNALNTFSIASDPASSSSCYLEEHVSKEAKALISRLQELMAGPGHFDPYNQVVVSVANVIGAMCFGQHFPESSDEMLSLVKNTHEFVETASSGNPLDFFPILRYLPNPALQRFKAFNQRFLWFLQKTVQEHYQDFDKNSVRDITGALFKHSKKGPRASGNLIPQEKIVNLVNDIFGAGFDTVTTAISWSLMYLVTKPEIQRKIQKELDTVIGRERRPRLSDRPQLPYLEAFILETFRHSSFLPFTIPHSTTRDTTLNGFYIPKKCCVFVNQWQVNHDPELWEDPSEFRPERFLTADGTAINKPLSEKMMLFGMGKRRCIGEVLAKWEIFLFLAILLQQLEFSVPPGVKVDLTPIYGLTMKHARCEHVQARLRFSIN

For a further test, the target named is T2, fMet-Leu-Phe receptor (Homo sapiens, UniProt P21462).
T2 sequence (P21462 whole entry): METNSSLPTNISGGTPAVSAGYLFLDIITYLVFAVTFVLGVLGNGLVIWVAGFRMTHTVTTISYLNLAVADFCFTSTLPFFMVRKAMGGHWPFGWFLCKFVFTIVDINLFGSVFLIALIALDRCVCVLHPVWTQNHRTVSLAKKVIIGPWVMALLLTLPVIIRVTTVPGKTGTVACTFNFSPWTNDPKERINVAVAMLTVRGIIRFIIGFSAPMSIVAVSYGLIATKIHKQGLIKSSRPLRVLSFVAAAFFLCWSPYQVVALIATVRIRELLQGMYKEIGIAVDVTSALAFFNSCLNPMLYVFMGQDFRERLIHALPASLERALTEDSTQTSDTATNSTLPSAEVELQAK
As to the kind of experiment: FPR ligands, dose response (AID 519). In kind it is functional.

The target in a further test is Cytochrome P450 2D6 (Homo sapiens, UniProt P10635).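 Also: CYP2D6 member of a cytochrome P450 panel assay.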
The next test has as its target Cytochrome P450 2C19 (Homo sapiens, UniProt P33261). Kind of test: Cytochrome panel assay with activity outcomes. Panel member name: p450-cyp2c19 Compounds with AC50 equal or less than 10 uM are considered active. In kind it is functional. The settings on record: read-out: AC50.
The target in test [2] is Peroxisome proliferator-activated receptor gamma/Nuclear receptor coactivator 3 (Homo sapiens, UniProt P37231). In kind it is functional.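 Also: agonist potency for raising coactivator recruitment to the receptor.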
Sequence of Peroxisome proliferator-activated receptor gamma/Nuclear receptor coactivator 3 (P37231 whole entry): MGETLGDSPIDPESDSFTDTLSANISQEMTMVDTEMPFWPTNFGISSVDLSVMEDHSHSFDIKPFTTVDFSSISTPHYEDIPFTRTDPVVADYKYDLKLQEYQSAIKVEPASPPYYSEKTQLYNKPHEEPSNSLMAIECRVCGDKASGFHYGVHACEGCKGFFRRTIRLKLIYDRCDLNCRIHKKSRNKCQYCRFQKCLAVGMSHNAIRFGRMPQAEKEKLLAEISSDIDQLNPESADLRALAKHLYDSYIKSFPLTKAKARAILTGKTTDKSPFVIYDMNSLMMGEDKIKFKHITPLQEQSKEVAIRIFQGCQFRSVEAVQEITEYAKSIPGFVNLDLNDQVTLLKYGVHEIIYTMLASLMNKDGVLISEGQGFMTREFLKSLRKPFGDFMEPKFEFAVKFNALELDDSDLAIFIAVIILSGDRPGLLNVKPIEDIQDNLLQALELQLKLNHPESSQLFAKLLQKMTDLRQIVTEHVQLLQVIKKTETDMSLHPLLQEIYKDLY
Sequence of Peroxisome proliferator-activated receptor gamma/Nuclear receptor coactivator 3 (Q9Y6Q9 whole entry, further chain): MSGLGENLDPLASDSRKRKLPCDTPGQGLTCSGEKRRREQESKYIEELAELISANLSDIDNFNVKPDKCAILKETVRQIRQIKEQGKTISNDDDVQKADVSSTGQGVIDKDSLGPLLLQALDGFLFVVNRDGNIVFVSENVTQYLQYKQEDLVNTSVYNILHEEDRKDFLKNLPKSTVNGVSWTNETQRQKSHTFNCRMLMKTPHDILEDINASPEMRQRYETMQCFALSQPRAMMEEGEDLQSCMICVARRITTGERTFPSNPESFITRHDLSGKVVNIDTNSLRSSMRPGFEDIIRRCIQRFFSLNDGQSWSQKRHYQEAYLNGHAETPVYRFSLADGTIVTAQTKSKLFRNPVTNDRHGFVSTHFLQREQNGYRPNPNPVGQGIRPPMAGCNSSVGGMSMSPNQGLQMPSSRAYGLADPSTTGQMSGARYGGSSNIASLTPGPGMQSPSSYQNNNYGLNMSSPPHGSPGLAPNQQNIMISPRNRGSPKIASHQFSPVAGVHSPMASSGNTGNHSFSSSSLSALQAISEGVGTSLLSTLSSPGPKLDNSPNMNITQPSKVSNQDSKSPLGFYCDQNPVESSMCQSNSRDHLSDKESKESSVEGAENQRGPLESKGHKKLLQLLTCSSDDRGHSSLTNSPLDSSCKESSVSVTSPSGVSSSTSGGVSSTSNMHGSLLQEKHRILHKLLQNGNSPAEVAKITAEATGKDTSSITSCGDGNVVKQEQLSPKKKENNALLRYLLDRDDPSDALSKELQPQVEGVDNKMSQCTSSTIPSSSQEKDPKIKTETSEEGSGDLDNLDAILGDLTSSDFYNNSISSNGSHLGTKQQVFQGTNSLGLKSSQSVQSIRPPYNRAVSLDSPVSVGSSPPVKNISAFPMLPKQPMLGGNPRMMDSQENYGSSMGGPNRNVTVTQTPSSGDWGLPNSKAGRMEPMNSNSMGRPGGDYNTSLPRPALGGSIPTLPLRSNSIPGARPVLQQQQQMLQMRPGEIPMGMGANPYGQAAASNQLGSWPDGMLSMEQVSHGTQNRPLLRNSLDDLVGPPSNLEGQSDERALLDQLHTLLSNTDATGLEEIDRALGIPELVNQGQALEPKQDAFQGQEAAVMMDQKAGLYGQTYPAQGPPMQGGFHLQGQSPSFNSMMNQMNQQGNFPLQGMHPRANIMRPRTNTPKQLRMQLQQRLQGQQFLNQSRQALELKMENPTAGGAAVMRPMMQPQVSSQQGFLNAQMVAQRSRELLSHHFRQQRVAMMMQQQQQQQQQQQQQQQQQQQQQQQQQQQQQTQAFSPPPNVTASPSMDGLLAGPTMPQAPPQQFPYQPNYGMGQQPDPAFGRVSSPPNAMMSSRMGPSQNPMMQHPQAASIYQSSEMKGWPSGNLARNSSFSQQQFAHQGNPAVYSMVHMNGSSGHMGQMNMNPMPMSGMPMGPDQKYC
The target in test [3] is Peroxisome proliferator-activated receptor gamma/Nuclear receptor coactivator 2 (Homo sapiens, UniProt P37231). The test is classed as functional.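 Also: agonist potency for raising coactivator recruitment to the receptor.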
Sequence of Peroxisome proliferator-activated receptor gamma/Nuclear receptor coactivator 2 (P37231 whole entry): as the sequence (P37231 whole entry) above
Sequence of Peroxisome proliferator-activated receptor gamma/Nuclear receptor coactivator 2 (Q15596 whole entry, further chain): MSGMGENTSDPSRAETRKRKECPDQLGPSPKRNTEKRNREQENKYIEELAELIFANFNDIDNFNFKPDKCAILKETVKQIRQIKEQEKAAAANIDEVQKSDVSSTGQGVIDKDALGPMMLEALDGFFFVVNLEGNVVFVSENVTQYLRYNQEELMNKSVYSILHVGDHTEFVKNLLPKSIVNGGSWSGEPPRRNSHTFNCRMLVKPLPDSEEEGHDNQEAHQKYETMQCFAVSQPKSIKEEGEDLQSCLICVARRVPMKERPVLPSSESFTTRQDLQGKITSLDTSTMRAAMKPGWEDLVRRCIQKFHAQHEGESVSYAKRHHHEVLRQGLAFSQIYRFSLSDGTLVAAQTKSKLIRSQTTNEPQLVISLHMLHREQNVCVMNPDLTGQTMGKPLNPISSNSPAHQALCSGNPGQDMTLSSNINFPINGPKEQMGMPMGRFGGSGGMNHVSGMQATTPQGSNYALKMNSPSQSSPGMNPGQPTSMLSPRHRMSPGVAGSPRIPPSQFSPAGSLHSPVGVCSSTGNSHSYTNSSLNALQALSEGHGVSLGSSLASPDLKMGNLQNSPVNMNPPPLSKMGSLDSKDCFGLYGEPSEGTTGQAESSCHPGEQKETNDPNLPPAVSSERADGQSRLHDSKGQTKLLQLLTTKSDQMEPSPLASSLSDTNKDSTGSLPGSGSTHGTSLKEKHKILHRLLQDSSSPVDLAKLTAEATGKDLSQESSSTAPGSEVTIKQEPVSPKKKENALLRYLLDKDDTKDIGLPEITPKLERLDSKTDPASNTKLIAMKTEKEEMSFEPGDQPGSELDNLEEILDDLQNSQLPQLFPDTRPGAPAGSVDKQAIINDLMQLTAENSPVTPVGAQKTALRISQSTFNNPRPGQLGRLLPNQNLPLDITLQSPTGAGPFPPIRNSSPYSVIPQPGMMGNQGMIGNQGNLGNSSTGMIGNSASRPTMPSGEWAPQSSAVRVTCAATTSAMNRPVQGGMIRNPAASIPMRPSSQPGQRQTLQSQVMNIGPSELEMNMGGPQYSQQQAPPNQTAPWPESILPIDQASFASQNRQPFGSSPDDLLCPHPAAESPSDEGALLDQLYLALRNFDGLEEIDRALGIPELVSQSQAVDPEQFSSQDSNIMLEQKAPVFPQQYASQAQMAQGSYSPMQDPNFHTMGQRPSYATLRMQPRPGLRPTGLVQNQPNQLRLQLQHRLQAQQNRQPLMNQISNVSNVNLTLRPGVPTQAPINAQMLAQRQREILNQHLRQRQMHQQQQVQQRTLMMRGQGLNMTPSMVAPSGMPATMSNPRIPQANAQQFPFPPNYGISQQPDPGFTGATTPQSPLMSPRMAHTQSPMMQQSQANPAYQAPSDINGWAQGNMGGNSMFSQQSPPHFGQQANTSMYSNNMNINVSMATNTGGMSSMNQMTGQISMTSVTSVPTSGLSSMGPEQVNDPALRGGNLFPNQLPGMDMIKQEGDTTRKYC
Test [4] concerns the target Peroxisome proliferator-activated receptor gamma/Nuclear receptor coactivator 1 (Homo sapiens, UniProt P37231). The test is classed as functional.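 Also: agonist potency as compounds enhance coactivator SRC-1 recruitment to PPARgamma.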
The nature of test [5]: inhibitors of Vif binding to APOBEC3G peptide, primary screen, biochemical, TR-FRET, GST-Vif 1-94, biotin-A3G peptide, dose response retest (AID 1117319).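 Also: TR-FRET signal of purified GST-Vif binding a biotinylated A3G peptide; inhibitors lower the FRET signal by blocking Vif and A3G binding.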 In kind it is functional. (TR-FRET usually uses a lanthanide donor and a delayed reading to cut background.)
Test [6] addresses T3, Heat shock factor protein 1 (Mus musculus, UniProt P38532).
T3 sequence (P38532 whole entry): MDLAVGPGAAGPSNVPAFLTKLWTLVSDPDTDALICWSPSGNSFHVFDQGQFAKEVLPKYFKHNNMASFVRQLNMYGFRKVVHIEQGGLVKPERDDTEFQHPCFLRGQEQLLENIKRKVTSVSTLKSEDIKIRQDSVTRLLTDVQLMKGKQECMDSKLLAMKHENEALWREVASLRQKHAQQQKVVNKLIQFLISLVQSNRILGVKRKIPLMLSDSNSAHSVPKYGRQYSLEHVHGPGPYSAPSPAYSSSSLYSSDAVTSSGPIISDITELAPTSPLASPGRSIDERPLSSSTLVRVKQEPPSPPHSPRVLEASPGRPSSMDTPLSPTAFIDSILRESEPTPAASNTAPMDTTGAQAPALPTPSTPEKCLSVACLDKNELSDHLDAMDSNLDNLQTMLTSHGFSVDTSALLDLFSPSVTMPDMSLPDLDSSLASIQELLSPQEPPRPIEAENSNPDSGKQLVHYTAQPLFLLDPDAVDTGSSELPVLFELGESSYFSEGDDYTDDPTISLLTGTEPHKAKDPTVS
As to the kind of experiment: HSF1 potentiators in luciferase reporter cells, confirmation, cell-based, NIH3T3, luminescence, dose retest (AID 435004).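 Also: stress induced by proteasome inhibitor MG132 added 30 min after compound; luciferase reporter driven by HSF1 response element in NIH3T3 cells; actives raise luminescence as potentiators of the MG132 stress response.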 The test is classed as functional. Background: A reporter such as luciferase makes a cellular process visible.

A further test has as its target T4, Streptokinase A (Streptococcus pyogenes serotype M1, UniProt P10520).
T4 sequence (P10520 whole entry): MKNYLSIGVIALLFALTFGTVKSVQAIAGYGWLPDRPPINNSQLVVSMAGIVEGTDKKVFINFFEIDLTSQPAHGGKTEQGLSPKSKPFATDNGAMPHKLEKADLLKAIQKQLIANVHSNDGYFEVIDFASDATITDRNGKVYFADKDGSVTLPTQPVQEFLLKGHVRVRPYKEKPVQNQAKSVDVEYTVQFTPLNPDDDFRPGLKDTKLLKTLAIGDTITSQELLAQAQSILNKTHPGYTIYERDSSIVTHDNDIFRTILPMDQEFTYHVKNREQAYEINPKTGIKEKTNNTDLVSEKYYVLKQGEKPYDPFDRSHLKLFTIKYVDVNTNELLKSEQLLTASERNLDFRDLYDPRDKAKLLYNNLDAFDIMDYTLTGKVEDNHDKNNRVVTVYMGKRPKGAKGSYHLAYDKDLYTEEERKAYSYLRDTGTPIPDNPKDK
Kind of test: S. pyogenes streptokinase expression inhibitors, potency, dose response, plasminogen activation absorbance, OD405 (AID 1914).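 Also: secreted streptokinase activity via plasminogen activation per viability signal from cell pellet.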 The test is classed as functional, Streptococcus pyogenes M1 GAS.

The next test deals with Streptococcus. Kind of test: Group A Streptococcus viability loss, dose response, counter-screen for streptokinase expression inhibitor project, luminescence, BacTiterGlo (AID 1915).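 Also: potency for reduction of bacterial viability or growth.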 In kind it is functional, organism-based. On the technique in general: A counterscreen serves to expose hits that act by an unwanted route or on another target.
Test [7] has as its target T5, Low molecular weight phosphotyrosine protein phosphatase (Homo sapiens, UniProt P24666).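 Also: Dose-response confirmation assay measuring inhibition of LMPTP enzyme activity by fluorescence intensity read-out.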
T5 sequence (P24666 whole entry): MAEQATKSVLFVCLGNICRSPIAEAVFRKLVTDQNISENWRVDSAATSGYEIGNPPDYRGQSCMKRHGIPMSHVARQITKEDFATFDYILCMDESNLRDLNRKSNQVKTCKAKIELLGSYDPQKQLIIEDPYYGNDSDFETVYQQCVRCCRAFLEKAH
In kind it is functional. As to conditions: read-out: IC50_Mean.

The test system of test [8] is Streptococcus sp. 'group A'. Kind of test: growth inhibition of control SK(-) GAS strain, dose response, counter-screen for streptokinase expression inhibitor project, luminescence, kanamycin, BacTiterGlo, confirmation (AID 1900). The test is classed as functional, organism-based.
Test [9] can be described thus: HEp-2 cell cytotoxicity, dose response, cytotoxicity control for RSV inhibitor project, HTS (AID 2410). The test is classed as functional. As to conditions: human respiratory syncytial virus.
The target of test [10] is Glyceraldehyde-3-phosphate dehydrogenase (Homo sapiens, UniProt P04406).
Sequence of Glyceraldehyde-3-phosphate dehydrogenase (P04406 whole entry): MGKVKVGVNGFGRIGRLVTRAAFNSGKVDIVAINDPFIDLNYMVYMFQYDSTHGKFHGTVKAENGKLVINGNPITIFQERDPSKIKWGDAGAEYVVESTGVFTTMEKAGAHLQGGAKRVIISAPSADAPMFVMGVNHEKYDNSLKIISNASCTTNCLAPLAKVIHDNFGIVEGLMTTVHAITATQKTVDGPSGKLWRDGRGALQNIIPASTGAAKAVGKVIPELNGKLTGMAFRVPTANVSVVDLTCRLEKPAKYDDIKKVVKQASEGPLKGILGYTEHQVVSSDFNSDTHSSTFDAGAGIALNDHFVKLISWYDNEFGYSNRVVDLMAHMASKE
In test [11] the target is Mitogen-activated protein kinase 10 (Homo sapiens, UniProt P53779). As to the kind of experiment: Dose response biochemical screening assay for inhibitors of c-Jun N-Terminal Kinase 3 (JNK3). [Related pubchem assays: 746 ].
Sequence of Mitogen-activated protein kinase 10 (P53779 whole entry): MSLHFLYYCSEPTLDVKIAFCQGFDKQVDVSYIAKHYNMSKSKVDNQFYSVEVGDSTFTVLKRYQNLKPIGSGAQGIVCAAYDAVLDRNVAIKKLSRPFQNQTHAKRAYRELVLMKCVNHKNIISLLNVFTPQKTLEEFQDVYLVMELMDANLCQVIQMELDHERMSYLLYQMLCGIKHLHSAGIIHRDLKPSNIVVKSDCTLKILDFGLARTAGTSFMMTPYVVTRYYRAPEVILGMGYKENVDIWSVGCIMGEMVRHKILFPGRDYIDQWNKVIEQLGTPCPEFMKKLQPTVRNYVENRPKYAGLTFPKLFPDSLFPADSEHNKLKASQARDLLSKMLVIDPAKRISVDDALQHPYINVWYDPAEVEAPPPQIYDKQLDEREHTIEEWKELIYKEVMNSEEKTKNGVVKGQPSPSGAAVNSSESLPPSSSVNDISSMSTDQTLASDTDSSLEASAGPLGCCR
Another test deals with T6, Protein skinhead-1 (Caenorhabditis elegans, UniProt P34707).
T6 sequence (P34707 whole entry): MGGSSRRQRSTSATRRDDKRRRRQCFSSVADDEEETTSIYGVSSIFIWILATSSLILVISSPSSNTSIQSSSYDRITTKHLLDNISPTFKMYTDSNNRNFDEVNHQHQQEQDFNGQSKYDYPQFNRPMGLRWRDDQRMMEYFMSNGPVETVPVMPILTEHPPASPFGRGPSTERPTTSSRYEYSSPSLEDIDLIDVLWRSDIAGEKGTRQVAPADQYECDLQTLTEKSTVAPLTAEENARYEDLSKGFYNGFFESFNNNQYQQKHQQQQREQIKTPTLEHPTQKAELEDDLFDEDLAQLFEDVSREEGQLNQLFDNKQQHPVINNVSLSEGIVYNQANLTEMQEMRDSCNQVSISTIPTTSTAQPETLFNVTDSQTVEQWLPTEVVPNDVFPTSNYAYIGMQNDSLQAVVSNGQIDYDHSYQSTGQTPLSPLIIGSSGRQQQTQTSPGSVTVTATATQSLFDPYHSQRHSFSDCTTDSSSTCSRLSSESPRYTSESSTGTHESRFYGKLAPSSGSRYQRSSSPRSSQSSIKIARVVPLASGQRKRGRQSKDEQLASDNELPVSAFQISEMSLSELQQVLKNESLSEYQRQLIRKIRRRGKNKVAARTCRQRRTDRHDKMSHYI
In kind it is functional.

Another test deals with Cytochrome P450 2C9 (Homo sapiens, UniProt P11712).

The AC50 is the concentration giving half of the maximal activity seen. As for `CC1(C)CN(c2ccccc2)N(C(=O)c2ccc(F)cc2)C1=O`, the AC50 in test [1] is 3.63 µM (active). Further, the IC50 at Prothrombin was 0.837 µM (active).

Broadly, the Ki is a measure of affinity in units of concentration, obtained from inhibition or displacement. Consider `CCC(C)(C(=O)NC1CCCC1)N(CC1CCCO1)C(=O)c1ccc2c(c1)OCO2` (stereo not given), for which the AC50 on Cytochrome P450 1A2 was 39.8 µM (inconclusive); at Cytochrome P450 2D6, 35.5 µM (inconclusive); at Cytochrome P450 2C19, 5.62 µM (inconclusive). Besides, at fMet-Leu-Phe receptor, the Ki is > 66.7 µM (inactive).

The EC50 is the concentration giving half of the maximal effect. `COc1ccc(C2(CNC(=O)/C=C\c3ccco3)CCCC2)cc1OC`: the half-maximal effective concentration (EC50) in test [2], in [3] and in test [4] was > 79.4 µM (not active) in each case.

In the case of `O=C(CSc1nc(O)c2cnn(-c3ccc(F)cc3)c2n1)N1CCCCCC1`, the IC50 against Prothrombin was > 50 µM (not active).

Take `Oc1c(C(c2ccccc2)N2CCN(Cc3ccccc3)CC2)sc2ncnn12` (stereo not given): in test [5], the IC50 was > 100 µM (active).

`Cc1ccc(-n2c(C)cc(C(=O)COc3c(CO)cc(F)cc3CO)c2C)cc1C`: the EC50 in test [6] was > 260 µM (inactive); in test [2], > 79.4 µM (not active); in test [3], > 79.4 µM (not active); in test [4], > 79.4 µM (not active).

For the compound `Cn1c(CN2CCOCC2)nc2cc(NC(=O)c3ccc(F)cc3)ccc21`, the IC50 in [5] was > 100 µM (active).

For `COc1cccc2sc(N3CCN(c4nc5ccccc5s4)CC3)nc12`, the figures for the EC50 in test [2], in [3] and in [4] were 22.9 µM (not active), 19.1 µM (not active) and 13.4 µM (not active), respectively.

Take `CCn1cc(C(=O)NCc2ccc3c(c2)OCO3)c(=O)c2cc(F)c(N3CCN(C(=O)c4ccco4)CC3)cc21`: the EC50 is > 150 µM (not active) at Streptokinase A, 20.8 µM (active) with Streptococcus and 6.52 µM (active) in [8]. Also, the IC50 in test [7] is 29.4 µM (inactive).

A word on the CC50: it is the concentration at which the toxic effect on the cells reaches its halfway point. Consider `Cc1ccccc1CC1(CO)CCCN(C(=O)CCC(=O)c2ccccc2)C1` (stereo not given), for which the EC50 in test [2], in [3] and in [4] was > 79.4 µM (not active) in each case. Moreover, in [9], the CC50 was 28.5 µM (active).

Take `Cc1ccc(N2C(=O)C(Cl)=C(N(C)C)C2=O)cc1`: in test [10], the IC50 is > 50 µM (inconclusive).

For the compound `COc1cc(CN/C(C)=C(\C#N)C(N)=O)cc(OC)c1OC`, the IC50 in [11] is 7.16 µM (active).

Consider `COC(=O)c1[nH]c(C)c(C(=O)C2=C(O)C(=O)N(CCCN3CCOCC3)C2c2ccccn2)c1C` (stereo not given), for which the Ki on fMet-Leu-Phe receptor is 9.7 µM (active). Besides, at Protein skinhead-1, the IC50 was > 100 µM (inactive).

On to `COc1ccc(C(C)=O)cc1COC(=O)c1c(C)noc1C`, for which, in test [11], the IC50 is recorded as 39.8 µM (not active).

Regarding `O=C(NC1CCCC1)c1cccnc1N1CCCCCC1`, the AC50 at Cytochrome P450 2C9 was 35.5 µM (inconclusive). For the same compound, in test [11], the IC50 was > 93.1 µM (not active).

For `C[C@H]1CN(C2=C(Cl)C(=O)N(c3cccc(C(F)(F)F)c3)C2=O)CCN1`, the IC50 in test [10] is > 50 µM (inconclusive).

For the compound `CCOC(=O)n1cc(-c2cnc(CNC(=O)C(C)(c3ccccc3)c3ccccc3)o2)c2ccccc21`, the EC50 in test [2], in [3] and in test [4] was > 79.4 µM (not active) in each case.

In the case of `COc1ccccc1CNC(=O)c1cn(C)c2ccc(S(=O)(=O)N3CCCC3)cc2c1=O`, the IC50 at Prothrombin was 5.95 µM (active).

As for `COc1ccccc1C1C(C(=O)c2ccccc2)=C(O)C(=O)N1CCO` (stereo not given), the AC50 at Cytochrome P450 2C9 was 39.8 µM (inconclusive); at Cytochrome P450 1A2, 0.794 µM (inconclusive); on Cytochrome P450 2C19, 39.8 µM (inconclusive). In addition, the Ki at fMet-Leu-Phe receptor was 19.7 µM (inactive).

As for `Oc1[nH]c2ccccc2c1/C=N/c1ccc2c(c1)OCCO2`, in [11], the IC50 is recorded as 89.9 µM (not active).

For `COc1ccc(/C=N\NS(=O)(=O)c2ccc(Cl)cc2)cc1COc1ccccc1[N+](=O)[O-]`, at Prothrombin, the IC50 is > 50 µM (not active).
